Test results taken from PMC6348381, “Discovery of an MLLT1/3 YEATS Domain Chemical Probe” (Angewandte Chemie (International Ed. in English), 2018).

Key:
48 bromodomains = experiment: Thermal shift assay, bromodomain panel; format: binding, human; settings: 50 μM compound concentrations
Method: II.VII Thermal Shift Assay[6]
Thermal melting experiments were carried out using an Mx3005p Real Time PCR machine (Stratagene). Proteins were buffered in 10 mM HEPES pH 7.5, 500 mM NaCl and assayed in a 96-well plate at a final concentration of 2 μM in 20 μL volume. Compounds were added at a final concentration of 50 μM. SYPRO Orange (Molecular Probes) was added as a fluorescence probe at a dilution of 1:1000. Excitation and emission filters for the SYPRO-Orange dye were set to 465 nm and 590 nm, respectively. The temperature was raised with a step of 3 °C per minute from 25 °C to 96 °C and fluorescence readings were taken at each interval. The unfolding curves were fitted using the Boltzmann equation to determine the middle point of the transition.

MLLT1 YD = target: T1, MLLT1 YD (Homo sapiens, UniProt Q03111); experiment: AlphaScreen (AS) assay, MLLT1 YEATS domain; format: binding
T1 construct: made in house; host or cells: E. coli Rosetta
T1 sequence (Q03111 1-138 limits assumed): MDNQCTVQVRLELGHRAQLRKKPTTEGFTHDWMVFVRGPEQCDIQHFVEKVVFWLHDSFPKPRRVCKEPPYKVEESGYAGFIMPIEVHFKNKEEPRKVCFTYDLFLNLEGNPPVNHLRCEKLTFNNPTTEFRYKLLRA
Method: II.IV Protein Expression and Purification
Human bromodomains were cloned, expressed and purified as previously described. The cloning, expression and purification of human YEATS domains are described as follows; Sequences for the wild type YEATS domains of MLLT1, MLLT3, GAS41 and YEATS2 were cloned into expression vectors (Table S1). E. coli Rosetta cells were grown in TB medium at 37°C. Overexpression was induced after five hours by addition of IPTG to a final concentration of 0.4 mM and cells were incubated at 17°C overnight. Cells were harvested by centrifugation and the cell pellet was resuspended in cold binding buffer (50 mM Tris at pH 7.5, 500 mM NaCl, 20 mM imidazole, 2 mM DTT) on a magnetic stirring plate at 4°C. The suspension was lysed using an Avestin EmulsiFlex-C5 homogeniser (1 pass without pressure, four passes with pressure between 1000-1500 bar). The lysate was clarified via centrifugation at 16,000 rpm at 4°C for 1 hour (JLA-16 rotor in Beckmann Coulter Avanti J- […]
The supernatant was loaded onto a standard NiNTA column (HisTrap
FF, 5 ml, GE Healthcare Lifesciences) on an ÄKTAxpress system (GE). After washing with binding buffer, the target protein was eluted at 300 mM imidazole. The eluted peak fractions were pooled and concentrated to 5 ml (Amicon concentrators, 10 kDa molecular weight cut off (MWCO)) and then separated via size exclusion chromatography (buffered with 20 mM Tris at pH 7.5, 500 mM NaCl, 2 mM DTT) using a GE Superdex 75 column on an […]
(NanoDrop ND-1000 Spectrophotometer) and protein identity was verified via SDS-PAGE and LC/MS. Pooled fractions were then again concentrated to at least 2 mg/ml and stored at […]
(1 picture or pasted object on this page, not shown here)

MLLT1 = target: T2, MLLT1 (Homo sapiens, UniProt Q03111); experiment: NanoBRET assay, full length MLLT1:Histone 3.3 in HEK293 cells; format: cell-based; settings: relative to the DMSO control
T2 construct: We also developed a full length MLLT1:Histone 3.3 (H3.3) NanoBRET assay; host or cells: HEK293
Method: Compounds were then added directly to media (in the presence of SAHA 2.5 M) at final concentrations 0.01-30 μM or an equivalent amount of DMSO as a vehicle control, and the plates were incubated for 24 h at 37 °C in the presence

MLLT3 = target: T3, MLLT3 (Homo sapiens, UniProt P42568); experiment: NanoBRET assay, full-length MLLT3-NanoLuc / histone H3.3-HaloTag in HEK293 cells; format: cell-based; settings: 24 h
T3 construct: in full length MLLT3 N-terminal NanoLuc, Histone; host or cells: HEK293
T3 sequence (P42568 1-568): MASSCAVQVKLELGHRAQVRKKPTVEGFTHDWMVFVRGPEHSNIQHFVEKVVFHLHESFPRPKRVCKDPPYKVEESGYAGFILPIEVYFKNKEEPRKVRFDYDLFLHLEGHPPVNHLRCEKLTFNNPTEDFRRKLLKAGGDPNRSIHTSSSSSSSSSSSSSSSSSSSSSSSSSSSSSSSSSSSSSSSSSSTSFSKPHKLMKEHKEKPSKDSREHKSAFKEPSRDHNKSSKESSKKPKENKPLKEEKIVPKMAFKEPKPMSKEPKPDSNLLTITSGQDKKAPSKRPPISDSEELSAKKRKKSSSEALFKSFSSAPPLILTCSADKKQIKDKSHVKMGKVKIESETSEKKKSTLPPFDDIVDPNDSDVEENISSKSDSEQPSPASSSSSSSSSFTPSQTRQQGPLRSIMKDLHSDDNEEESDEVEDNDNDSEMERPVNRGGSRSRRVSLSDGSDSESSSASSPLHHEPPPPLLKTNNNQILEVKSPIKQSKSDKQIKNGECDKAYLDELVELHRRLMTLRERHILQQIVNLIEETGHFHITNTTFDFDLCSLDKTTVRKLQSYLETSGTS
Method: II.V NanoLuciferase Bioluminescent Resonance Energy Transfer (NanoBRET) Assay[2]
HEK293 cells ([…]) were plated in each well of a 6-well plate after 6 h cells were co-transfected with Histone H3.3-HaloTag (NM_002107) and a NanoLuciferase fusion of MLLT1 or MLLT3 (WT sequences from Promega HaloTag® human ORF in pFN21A) at a 1:500 and 1:10 (NanoLuc® to HaloTag®) ratio respectively with FuGENE HD transfection regent. Sixteen hours post-transfection, cells were collected and exchanged into media containing phenol red-free DMEM and 4% FBS in the absence (control sample) or the presence (experimental sample) of 100 nM NanoBRET 618 fluorescent ligand (Promega).
Cell density was adjusted to 2 x 10^5 cells/mL and then seeded 100 µL/well in a white 96-well plate (Corning Costar #3917). Compounds were then added directly to media (in the presence of SAHA 2.5 µM) at final concentrations 0.01-30 μM or an equivalent amount of DMSO as a vehicle control, and the plates were incubated for 24 h at 37 °C in the presence […]
NanoBRET Nano-Glo substrate (Promega) was added to both control and experimental samples at a final concentration of 10 µM. Readings were performed within 5 minutes using a ClarioSTAR (BMG labtech) equipped with LP 480 and 610 nm filters. A corrected BRET ratio was calculated and is defined as the ratio of the emission at 610 nm/[…] for experimental samples minus the emission at 6 10 nm/640 nm for control samples (not incubated with NanoBRET fluorescent ligand). BRET ratios are expressed as milliBRET units (mBU), where 1 mBU corresponds to the corrected BRET ratio multiplied by 1000.
3.3 C-terminal HaloTag in HEK293 cells. Treatment with SAHA (2.5 µM) alone increases MLLT3- […]
dependent manner. Mean±SD of BRET ratio (mBU), n=4 technical replicates.
(also on this page, place not known: 5) -well H3.3 -HaloTag pFN21A ) ( NanoLuc® H aloTag®) post -transfection, red -free Nano -Glo 10 5 6 10 6 10 l igand). cells . […]

T2 sequence (Q03111 whole entry): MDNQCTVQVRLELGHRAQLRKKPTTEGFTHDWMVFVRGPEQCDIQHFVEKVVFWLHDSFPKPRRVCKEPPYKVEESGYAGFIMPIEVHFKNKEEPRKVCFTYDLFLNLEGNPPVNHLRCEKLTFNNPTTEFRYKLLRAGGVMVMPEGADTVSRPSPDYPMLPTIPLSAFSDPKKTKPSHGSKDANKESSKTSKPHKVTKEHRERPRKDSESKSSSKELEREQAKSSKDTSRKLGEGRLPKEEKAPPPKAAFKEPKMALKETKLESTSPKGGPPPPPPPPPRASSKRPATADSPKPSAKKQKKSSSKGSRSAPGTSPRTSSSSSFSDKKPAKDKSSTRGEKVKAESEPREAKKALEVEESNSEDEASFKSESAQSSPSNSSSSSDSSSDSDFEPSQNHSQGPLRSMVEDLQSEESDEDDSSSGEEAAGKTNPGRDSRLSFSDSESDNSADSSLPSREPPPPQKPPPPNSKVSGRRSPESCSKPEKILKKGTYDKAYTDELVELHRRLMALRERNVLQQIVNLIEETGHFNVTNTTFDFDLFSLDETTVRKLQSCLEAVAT

`COC(=O)c1ccc(C(=O)Nc2ccc3[nH]c(CN4CCCCC4)nc3c2)cc1` [Compound 1] was tested. Which “activity against 48 bromodomains in thermal shift assay” value (48 bromodomains) did it give?
Its value is “no activity”.

And the IC50 (MLLT1 YD)?
Its IC50 is 2.1 ± 0.78 µM.

What does the source list for `C[C@H]1CCCN1Cc1nc2cc(NC(=O)c3ccc4c(cnn4C)c3)ccc2[nH]1` [Compound 92]?
BRET activity (mBU), MLLT1:H3.3 NanoBRET (MLLT1): no reduction in mBU; IC50 (MLLT3; in the presence of 2.5 μM SAHA): 0.4 ± 0.08 µM; MLLT3-Histone 3.3 interaction (mBU) (MLLT3; representative assay): can reduce this interaction
